The results in this text go back to PubChem BioAssay AID1996.

In brackets after ≈: the same amount, converted by molar mass.

For the data set the following is noted: buffer; pH 7.4; 200.0 µM.
The term solubility (kinetic) denotes solubility judged after dilution from a stock solution rather than from solid. With `O=C(/C=C/c1cccc(C(F)(F)F)c1)N1CCN(c2ccccn2)CC1`, the kinetic solubility was 4 µg/mL (≈ 11.1 µM).

`O=C(NCc1ccccn1)Nc1ccccc1` registered a solubility (kinetic) above 34.1 µg/mL.

`O=S(=O)(NCc1ccc2c(c1)OCO2)c1ccc(F)c(F)c1` yielded a solubility (kinetic) of 47.7 µg/mL (≈ 146 µM).

In turn, `CCOC(=O)c1c(N)c2cc([N+](=O)[O-])ccc2n1C` displayed a solubility (kinetic) below 0.2 µg/mL.

Molecule `O=C1NC(=S)N/C1=C/c1cccc2ccccc12` displayed a kinetic solubility of 1.7 µg/mL (≈ 6.68 µM).

In the case of `COc1ccc(NC(=O)CNC(=O)c2cccs2)cc1Cl`, the kinetic solubility is 2.7 µg/mL (≈ 8.31 µM).

`O=C(c1ccc(C(=O)N2CCN(c3ccccc3F)CC2)nc1)N1CCN(c2ccccc2F)CC1` had a solubility (kinetic) of 3.5 µg/mL (≈ 7.12 µM).

In turn, `CCCCNC(=O)C(=O)NCCCn1ccnc1` showed a solubility (kinetic) above 37.8 µg/mL.

For the molecule `O=C(Nc1ccccc1Cl)NC1CCCCCCC1`, the kinetic solubility came out at 0.4 µg/mL (≈ 1.42 µM).

`NS(=O)(=O)c1ccc(NC(=O)c2cc(=O)c3ccccc3o2)cc1`: the kinetic solubility came out at 18.7 µg/mL (≈ 54.3 µM).

In the case of `CC(OC(=O)C1CCCC1)C(=O)Nc1ncc(Cl)cc1Cl` (configuration not stated), the kinetic solubility came out at 49.1 µg/mL (≈ 148 µM).

With `O=C(NC1CC2CCCC(C1)N2C(=O)Nc1cccc(F)c1)C1CC1` (configuration not stated), the solubility (kinetic) was found to be 16.3 µg/mL (≈ 47.2 µM).

As to `COC(=O)CN1C(=O)N/C(=C/c2ccccc2OC)C1=O`, the solubility (kinetic) is above 43.5 µg/mL.

In the case of `COc1ccc(S(=O)(=O)Nc2cc(Sc3ncn[nH]3)c(O)cc2C)cc1`, the solubility (kinetic) is above 58.9 µg/mL.

Turning to `Cc1ccc(-c2csc(CC(N)=O)n2)cc1`, the kinetic solubility is above 34.8 µg/mL.

In turn, `COc1ccc(S(=O)(=O)N2CCN(CC(=O)N3CCOCC3)CC2)cc1OC` returned a solubility (kinetic) above 62 µg/mL.

In turn, `N#Cc1ccccc1NC(=O)CN1CC=C(c2ccccc2)CC1` yielded a solubility (kinetic) of 15.7 µg/mL (≈ 49.5 µM).

As to `COc1cccc(C(=O)NC(C)c2cccc3ccccc23)c1OC` (configuration not stated), the solubility (kinetic) amounted to 19 µg/mL (≈ 56.6 µM).

On to `O=C(NC1CC1)C(=O)c1c[nH]c2ccccc12`, for which the kinetic solubility is above 34.2 µg/mL.

Turning to `Cc1ccc(NC(=O)Cc2c(O)c3ccccc3[nH]c2=O)c(C)c1`, the kinetic solubility was 23 µg/mL (≈ 71.3 µM).

With `CC1CCN(CCC(=O)Nc2ccccc2)CC1`, the solubility (kinetic) came to 29.5 µg/mL (≈ 120 µM).

In the case of `CC1CCN(CCC(=O)Nc2nccs2)CC1`, the solubility (kinetic) stood at 33.7 µg/mL (≈ 133 µM).

For the molecule `CCn1c(=O)c(C(=O)Nc2ccc(C)cc2)c(O)c2ccccc21`, the kinetic solubility was below 0.3 µg/mL.

Molecule `O=C(O)CCC(=O)Nc1ccc(S(=O)(=O)Nc2nccs2)cc1` registered a solubility (kinetic) of 51.4 µg/mL (≈ 145 µM).

As for `CC(C)(C)c1ccc(C(=O)NC(=S)N2CCOCC2)cc1`, the solubility (kinetic) is above 46 µg/mL.

In turn, `CSc1ccccc1NC(=O)C1=COCCO1` gave a kinetic solubility above 37.7 µg/mL.

The molecule `O=C(Nc1ccc2c(c1)OCCO2)c1ccoc1` displayed a solubility (kinetic) of 35.7 µg/mL (≈ 146 µM).

For `CCCN1CCC(NCC(C)c2ccccc2)CC1` (configuration not stated), the kinetic solubility was determined as 38.8 µg/mL (≈ 149 µM).

`C=CCn1c(C(C)(C)C)nc2ccccc21` had a kinetic solubility of 24.6 µg/mL (≈ 115 µM).

Take `CCOC(=O)c1nccnc1C(=O)Nc1cccc(C(F)(F)F)c1`: the kinetic solubility amounted to 47.5 µg/mL (≈ 140 µM).

As to `O=C(COC(=O)CCC1CCCC1)Nc1ccc(F)cc1`, the kinetic solubility was 5.9 µg/mL (≈ 20.1 µM).

`CC1(C)Cn2c(nc(=O)c3c2NCN(CCc2ccccc2)C3)S1`: the solubility (kinetic) is above 51.4 µg/mL.

Take `CCc1cc(C(=O)NCC(C)(C)N2CCOCC2)sc1C`: the kinetic solubility was above 46.6 µg/mL.

`Cc1ccc(Cl)cc1NC(=O)c1ccccn1` came in with a kinetic solubility of 6.3 µg/mL (≈ 25.5 µM).

In turn, `CCC(C(=O)OC)n1cnc2scc(-c3ccc(C)cc3)c2c1=O` (configuration not stated) showed a kinetic solubility of 29.3 µg/mL (≈ 85.6 µM).

The molecule `Cc1ccc(S(=O)(=O)Nc2ccccc2C(=O)N2CCCCC2)cc1` gave a solubility (kinetic) above 53.8 µg/mL.

Consider `COc1ccc(S(=O)(=O)N2CCOCC2)c2ccccc12`, for which the kinetic solubility turned out to be 40.6 µg/mL (≈ 132 µM).

The molecule `CCOc1ccc(Cc2onc3c2C(=O)CCC3)cc1OCC` gave a kinetic solubility of 45.4 µg/mL (≈ 144 µM).

In the case of `CN1CCN(c2oc(-c3ccccc3)nc2S(=O)(=O)c2ccccc2)CC1`, the kinetic solubility stood at 1.4 µg/mL (≈ 3.65 µM).

`COc1ccc(NS(=O)(=O)c2cc(N)ccc2N2CCCC2)cc1` yielded a kinetic solubility of 47.6 µg/mL (≈ 137 µM).

As for `CC(C)C(NC(=O)c1ccc(Cl)c([N+](=O)[O-])c1)C(=O)NCc1ccccn1` (configuration not stated), the kinetic solubility was 40.6 µg/mL (≈ 104 µM).

`Cc1cccc2c3nc4ccccc4nc3n(C)c12` showed a solubility (kinetic) below 0.2 µg/mL.

`Cc1ccc(NCc2nc3ccccc3n2C)c(C)c1` yielded a kinetic solubility of 32.1 µg/mL (≈ 121 µM).

The molecule `O=C1c2ccccc2C2(c3ccc(F)cc3)NCCN12` (configuration not stated) came in with a kinetic solubility above 40.2 µg/mL.

Turning to `Cc1[nH]c(=O)nc(SCc2cccc(Cl)c2)c1C#N`, the kinetic solubility is 12.2 µg/mL (≈ 41.8 µM).

As to `CCN(CC)C(=O)COc1ccc2c(-c3ccccc3)cc(=O)oc2c1`, the solubility (kinetic) was 40.7 µg/mL (≈ 116 µM).

In turn, `CCOC(=O)C1=NNC2(CC(=O)N(c3cccc(C)c3)C2=O)C1` (configuration not stated) registered a solubility (kinetic) above 47.3 µg/mL.

For the molecule `O=C(NCCC1=CCCCC1)C(=O)NCCc1ccc(Cl)cc1`, the kinetic solubility is below 0.4 µg/mL.

As to `CSCCNCc1c(C(=O)N2CCOCC2)nc2c(C)cccn12`, the kinetic solubility came to 46.1 µg/mL (≈ 132 µM).

For `NC(=O)C1CCCN(C(=O)CCCNC(=O)c2ccc(Cl)cc2)C1` (configuration not stated), the kinetic solubility is above 52.8 µg/mL.

For `CC(=O)NC(CC(=O)OCC(=O)c1cc(C)ccc1C)c1ccccc1` (configuration not stated), the solubility (kinetic) is above 53 µg/mL.

In turn, `COc1ccc(-n2c(C)nc(N)c2C(=O)c2ccccc2)cc1` registered a kinetic solubility of 19.8 µg/mL (≈ 64.4 µM).
